This passage reports CMI results from patent EP0983055B1, “COMPOSITION COMPRISING AN AMINO ACID N-UNDECYLENOYL; APPLICATION IN COSMETICS” (SOCIETE D'EXPLOITATION DE PRODUITS POUR LES INDUSTRIES …, priority 1997, dated 1999).

The structures appear in SMILES notation.

One assay deals with Staph. aureus. The assay is described as follows: MIC (CMI) determination in liquid medium. Format: cell-based. Conditions: pH5, substance alone, 72 h incubation at 30°C. As to the method: (§1) On a déterminé les CMI en milieu liquide, avec un temps d'incubation de 72 heures à 30°C, à […] (bouillon Trypticase soja tamponné), du Lipacide™ UG seul, du conservateur testé seul, ainsi que du mélange des deux produits La comparaison des résultats consignés dans les tableaux suivants fait apparaître nettement une synergie anti-microbienne qui autorise ainsi une réduction de la concentration nécessaires en conservateurs chimique dans les compositions.
(§2) La composition A est diluée dans l'eau pour obtenir la composition A2 contenant 0,05 % en poids d'undécylènoyl glycine et 0,05 % en poids d'octanoyl glycine et la composition A3 contenant 0,125 % en poids d'undécylènoyl glycine et 0,125 % en poids d'octanoyl glycine.
(§3) On obtient les résultats suivants (CMI à pH5).

A further assay has as its system Aspergillus Niger. The assay is described as follows: MIC (CMI) determination in liquid medium. The format is cell-based. The following applies: pH5, substance alone, 72 h incubation at 30°C. As to the method: as §1, §2, §3

For the compound `C=CCCCCCCCCC(=O)NCC(=O)O` [undécylènoyl glycine], the CMI in the assay on Staph. aureus was 0,01%; in the assay on Aspergillus Niger it was 0,25%.

With `CCCCCCCC(=O)NCC(=O)O` [octanoyl glycine], the CMI in the assay on Staph. aureus is given as 0,025%; in the assay on Aspergillus Niger, 2,5%.
